Measurements from patent publication US9434688B2, “Indole derivatives as selective androgen receptor modulators (SARMS)” (Janssen Pharmaceutica, NV, priority 2004, dated 2016).
Several values for one entry are separate records, joined by “and”; a condition that tells them apart may be missing. Equal values may be shown once.

What was measured:
[1] = biological target: T1, androgen receptor (Rattus norvegicus, UniProt P15207); test: COS-7 Whole-Cell Androgen Receptor Binding Assay, Adenovirus Transduction
T1 sequence (P15207 1-902): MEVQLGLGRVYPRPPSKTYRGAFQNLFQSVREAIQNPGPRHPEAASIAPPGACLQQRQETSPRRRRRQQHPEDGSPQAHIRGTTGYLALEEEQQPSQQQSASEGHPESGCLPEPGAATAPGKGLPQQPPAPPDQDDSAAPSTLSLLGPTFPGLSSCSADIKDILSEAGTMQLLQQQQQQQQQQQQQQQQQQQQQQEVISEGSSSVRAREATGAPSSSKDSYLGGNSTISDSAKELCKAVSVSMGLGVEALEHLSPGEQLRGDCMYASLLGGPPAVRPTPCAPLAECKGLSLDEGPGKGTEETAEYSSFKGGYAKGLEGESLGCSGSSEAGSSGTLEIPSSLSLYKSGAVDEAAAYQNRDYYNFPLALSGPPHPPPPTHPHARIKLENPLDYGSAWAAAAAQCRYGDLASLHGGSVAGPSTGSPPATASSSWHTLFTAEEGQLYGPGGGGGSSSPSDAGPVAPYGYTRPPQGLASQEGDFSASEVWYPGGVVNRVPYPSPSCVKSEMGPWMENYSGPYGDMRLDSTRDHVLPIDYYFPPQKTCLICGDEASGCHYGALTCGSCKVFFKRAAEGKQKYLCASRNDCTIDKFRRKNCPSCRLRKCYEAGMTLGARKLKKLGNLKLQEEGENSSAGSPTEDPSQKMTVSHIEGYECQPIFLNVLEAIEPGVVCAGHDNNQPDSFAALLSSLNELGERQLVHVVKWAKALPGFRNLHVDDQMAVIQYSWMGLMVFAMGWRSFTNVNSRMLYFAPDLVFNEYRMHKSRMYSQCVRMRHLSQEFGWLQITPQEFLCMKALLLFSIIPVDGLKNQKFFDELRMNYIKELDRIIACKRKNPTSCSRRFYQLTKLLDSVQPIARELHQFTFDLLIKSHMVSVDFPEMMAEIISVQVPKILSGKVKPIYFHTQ
Method: COS-7 cells were plated in 96-well plates at 20,000 cells per well, in a solution of DMEM/F12 (GIBCO) containing 10% (v/v) charcoal-treated fetal bovine serum (Hyclone) and lacking phenol red. The cells were then incubated overnight at 37° C. in 5% (v/v) humidified CO2.
Test compound solutions were prepared by diluting the test compound in 100% (v/v) DMSO, if necessary.
Next, 1 mL of DMEM/F12 lacking phenol red was pipetted into each of the wells of a 2-mL 96-well assay block. […] The wells were carefully mixed by pipette.
In a 15 mL or 50 mL sterile centrifuge tube, a dilution in DMEM/F12 of the adenovirus AdEasy+rAR at a moi of 1:50 per well was prepared.
The medium was removed from the 96-well plates by inversion and the plates dried very briefly, inverted, on a sterile towel. As soon as possible after medium removal, 40 μL of the diluted test compound was added to each well, in duplicate. […] The plates were then incubated for 48 hours at 37° C. in 5% (v/v) humidified CO2.
The medium was removed from the above incubated plates by inversion and dried. Each well was then washed with 0.35 mL of 1×PBS. The PBS was then removed from the plates by inversion and the plates dried.
To each well was then added 50 μL of 0.5% (v/v) Triton X-100 (Sigma) in 1×PBS and the plates placed on a rotary shaker for 5 min. The contents of each well were then transferred to an OptiPlate-96 (Packard) scintillation plate. To each well was then added 0.2 mL of Microscint-20 (Packard) and the wells counted on a TopCount (Packard).
Percent inhibition was determined by testing dilutions of the test compound (usually duplicates of 10 μM) in the binding assay. Counts per well were measured and percents of inhibition determined. […] Counts per well were measured and IC50s determined by linear regression.

[2] = biological target: T1, androgen receptor; test: Androgen Receptor Binding Using Rat Ventral Prostate Cytosol; design: from tissue; host or cells: ventral prostate cytosol of castrated male Sprague Dawley or Wistar rats; details: 3 µM

## CCSCC(O)c1cc2cc([N+](=O)[O-])c(C(F)(F)F)cc2[nH]1 (racemic) [compound 158]
[1]
  % Inhibition: 62% and 56%
[2]
  % Inhibition: 52%
